Assay results reported in the Kinase Knowledgebase extract (Sharma et al. 2016).

These compounds were tested against EGFR (murine) (UniProt P00533). Conditions: nih3t3/c7.
EGFR (murine), sequence (P00533 whole entry, looked up): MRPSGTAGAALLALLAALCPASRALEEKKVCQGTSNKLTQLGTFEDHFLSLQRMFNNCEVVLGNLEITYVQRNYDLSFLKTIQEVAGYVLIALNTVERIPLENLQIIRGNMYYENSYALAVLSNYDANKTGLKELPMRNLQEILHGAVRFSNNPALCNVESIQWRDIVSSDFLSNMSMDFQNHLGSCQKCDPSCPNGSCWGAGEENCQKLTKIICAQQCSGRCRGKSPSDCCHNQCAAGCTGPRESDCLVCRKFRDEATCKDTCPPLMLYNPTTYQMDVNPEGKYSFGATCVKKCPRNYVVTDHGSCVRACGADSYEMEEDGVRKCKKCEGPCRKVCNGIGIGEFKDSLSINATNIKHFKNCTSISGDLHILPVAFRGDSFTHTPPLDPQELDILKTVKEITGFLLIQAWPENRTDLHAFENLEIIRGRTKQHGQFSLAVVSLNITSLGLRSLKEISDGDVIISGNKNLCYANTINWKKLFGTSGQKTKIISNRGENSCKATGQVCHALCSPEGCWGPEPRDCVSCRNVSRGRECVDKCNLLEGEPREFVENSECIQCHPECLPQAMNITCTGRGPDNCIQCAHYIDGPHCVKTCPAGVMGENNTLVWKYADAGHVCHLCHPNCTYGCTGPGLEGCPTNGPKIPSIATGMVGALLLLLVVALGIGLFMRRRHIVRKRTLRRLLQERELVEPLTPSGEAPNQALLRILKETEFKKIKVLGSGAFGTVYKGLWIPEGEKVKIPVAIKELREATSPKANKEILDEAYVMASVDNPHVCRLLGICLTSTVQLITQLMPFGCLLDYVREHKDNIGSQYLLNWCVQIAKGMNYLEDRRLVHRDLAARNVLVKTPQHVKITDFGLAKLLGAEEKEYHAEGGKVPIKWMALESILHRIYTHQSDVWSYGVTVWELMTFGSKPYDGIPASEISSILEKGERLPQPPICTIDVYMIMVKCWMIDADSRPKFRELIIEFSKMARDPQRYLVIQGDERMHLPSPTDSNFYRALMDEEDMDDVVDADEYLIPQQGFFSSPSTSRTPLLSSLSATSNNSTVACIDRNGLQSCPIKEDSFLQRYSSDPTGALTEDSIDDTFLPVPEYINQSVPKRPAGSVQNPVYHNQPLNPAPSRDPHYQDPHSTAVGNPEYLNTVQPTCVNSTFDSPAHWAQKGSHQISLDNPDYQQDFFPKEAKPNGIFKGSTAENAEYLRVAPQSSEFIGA

SMILES | IC50
COC(=O)CCc1c[nH]c(/C=C2\C(=O)Nc3cc(OC)c(OC)cc32)c1C | > 50 µM
COC(=O)CCc1c[nH]c(/C=C2\C(=O)Nc3ccccc32)c1C | > 100 µM
Cc1cc(C)c(/C=C2\C(=O)Nc3ncccc32)[nH]1 | > 100 µM
Cc1c[nH]c(/C=C2\C(=O)Nc3ccccc32)c1CC(=O)O | > 100 µM
CCOC(=O)c1c(C)[nH]c(/C=C2\C(=O)Nc3ccc(Br)cc32)c1C | > 25 µM
CC(=O)c1[nH]c(/C=C2\C(=O)Nc3ccccc32)c(C)c1C | > 100 µM
COC(=O)Cc1c(Cl)[nH]c(/C=C2\C(=O)Nc3ccccc32)c1C(=O)OC | > 50 µM
CCc1c(/C=C2\C(=O)Nc3ccccc32)[nH]c(C(=O)O)c1C | > 100 µM
O=C(O)CCc1c(/C=C2\C(=O)Nc3ncccc32)[nH]c2c1CCCC2 | 12.5 µM
CCOC(=O)c1c(C)[nH]c(/C=C2\C(=O)Nc3ccc(NC(=O)c4ccc(C(=O)OC)cc4)cc32)c1C | > 10 µM
Cc1[nH]c(/C=C2\C(=O)Nc3ncccc32)c(C)c1CCC(=O)O | > 50 µM
Cc1c(/C=C2\C(=O)Nc3ncccc32)[nH]c2c1CCCC2 | 38.2 µM
CCOC(=O)CCc1c(C(=O)OCC)[nH]c(/C=C2\C(=O)Nc3ccccc32)c1CC(=O)OCC | > 10 µM
CCOC(=O)c1[nH]c(/C=C2\C(=O)Nc3ccccc32)c(C(C)=O)c1C | > 10 µM
O=C1Nc2ncccc2/C1=C/c1cc2c([nH]1)CCCC2 | 29.9 µM
Cc1c(CCC(=O)O)c[nH]c1/C=C1\C(=O)Nc2ncccc21 | > 25 µM
